Data published in the supplement of paper PMC10307832.

Tests used:
Experiment in all cases: relative viability (nuclei count vs DMSO), 5 days (fraction); higher = more cells survive
AZ628 + Crizotinib = compound: CC1=C(C=C(C=C1)NC(=O)C2=CC(=CC=C2)C(C)(C)C#N)NC3=CC4=C(C=C3)N=CN(C4=O)C [AZ628] + C[C@@H](Oc1cc(-c2cnn(C3CCNCC3)c2)cnc1N)c1c(Cl)ccc(F)c1Cl [Crizotinib] (partner 1 µM)
Procedure, shortened: (§1)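 Relative viability equals treated-well nuclei counts divided by vehicle-well nuclei counts. Counts came from 4× images of lung cancer cell lines grown in 1536-well plates for 5 days after pin-tool dosing on the day after seeding. Dosing used one drug alone or a fixed anchor-drug dose plus five library-drug doses (not always all listed) in √10 steps, and values are medians of duplicate plates.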

[1] = compound: C[As](C)SC[C@H](NC(=O)CC[C@H](N)C(=O)O)C(=O)NCC(=O)O [Darinaparsin] + CC(C)C[C@H](NC(=O)[C@H](Cc1ccccc1)NC(=O)c1cnccn1)B(O)O [Bortezomib] (partner 0.002 µM)
Procedure, shortened: as §1

QS11 + Phenformin = compound: C1CC2=C(C1)C=C(C=C2)OC3=NC(=C4C(=N3)N(C=N4)CC5=CC=C(C=C5)C6=CC=CC=C6)N[C@@H](CC7=CC=CC=C7)CO [QS11] + N=C(N)NC(=N)NCCc1ccccc1 [Phenformin] (partner 250 µM)
Procedure, shortened: as §1

QS11 + Palbociclib = compound: C1CC2=C(C1)C=C(C=C2)OC3=NC(=C4C(=N3)N(C=N4)CC5=CC=C(C=C5)C6=CC=CC=C6)N[C@@H](CC7=CC=CC=C7)CO [QS11] + CC(=O)c1c(C)c2cnc(Nc3ccc(N4CCNCC4)cn3)nc2n(C2CCCC2)c1=O [Palbociclib] (partner 0.5 µM)
Procedure, shortened: as §1

| Cell Line | relative viability (AZ628 + Crizotinib; first compound 0.08 µM) | relative viability (AZ628 + Crizotinib; first compound 0.253 µM) | relative viability (AZ628 + Crizotinib; first compound 0.8 µM) | relative viability (AZ628 + Crizotinib; first compound 2.53 µM) | relative viability (AZ628 + Crizotinib; first compound 8 µM) | relative viability ([1]; first compound 0.08 µM) | relative viability ([1]; first compound 0.8 µM) | relative viability ([1]; first compound 2.53 µM) | relative viability ([1]; first compound 8 µM) | relative viability (QS11 + Phenformin; first compound 0.08 µM) | relative viability (QS11 + Phenformin; first compound 0.253 µM) | relative viability (QS11 + Phenformin; first compound 0.8 µM) | relative viability (QS11 + Phenformin; first compound 2.53 µM) | relative viability (QS11 + Phenformin; first compound 8 µM) | relative viability (QS11 + Palbociclib; first compound 0.08 µM) | relative viability (QS11 + Palbociclib; first compound 0.253 µM) | relative viability (QS11 + Palbociclib; first compound 0.8 µM) | relative viability (QS11 + Palbociclib; first compound 2.53 µM) | relative viability (QS11 + Palbociclib; first compound 8 µM) |
| --- | --- | --- | --- | --- | --- | --- | --- | --- | --- | --- | --- | --- | --- | --- | --- | --- | --- | --- | --- |
| NCI-H1355 | 1.04 | 1.05 | 0.971 | 0.89 | 0.768 | 1.38 | 1.13 | 1.19 | 1.36 | 0.445 | 0.444 | 0.457 | 0.418 | 0.457 | 0.43 | 0.314 | 0.299 | 0.35 | 0.38 |
| NCI-H1437 | 0.869 | 0.822 | 0.899 | 0.995 | 0.932 | 0.562 | 0.558 | 0.468 | 0.584 | 0.302 | 0.225 | 0.285 | 0.334 | 0.283 | 0.299 | 0.351 | 0.239 | 0.287 | 0.239 |
| NCI-H1650 | 1.13 | 0.965 | 0.998 | 0.984 | 0.841 | 0.216 | 0.193 | 0.193 | 0.195 | 0.374 | 0.472 | 0.376 | 0.474 | 0.391 | 0.354 | 0.251 | 0.271 | 0.355 | 0.245 |
| NCI-H1651 | 0.864 | 0.87 | 0.863 | 0.902 | 0.925 | 1.05 | 1.05 | 0.917 | 1.12 | 0.377 | 0.384 | 0.305 | 0.374 | 0.343 | 0.542 | 0.53 | 0.4 | 0.48 | 0.581 |
| NCI-H1666 | 1.09 | 0.901 | 0.819 | 0.761 | 0.632 | 0.916 | 0.882 | 0.978 | 0.847 | 0.556 | 0.519 | 0.55 | 0.479 | 0.398 | 0.641 | 0.651 | 0.586 | 0.621 | 0.516 |
| NCI-H1734 | 0.561 | 0.574 | 0.568 | 0.621 | 0.381 | 1.37 | 0.937 | 0.854 | 0.986 | 0.391 | 0.397 | 0.389 | 0.374 | 0.375 | 0.374 | 0.389 | 0.31 | 0.32 | 0.324 |
| NCI-H1755 | 0.809 | 0.818 | 0.786 | 0.811 | 0.769 | 1.04 | 0.94 | 0.915 | 1.18 | 0.594 | 0.649 | 0.502 | 0.533 | 0.51 | 0.461 | 0.476 | 0.399 | 0.402 | 0.427 |
| NCI-H1792 | 1.08 | 0.916 | 0.771 | 0.881 | 0.633 | 1.69 | 1.03 | 0.652 | 1.03 | 0.219 | – | 0.338 | 0.268 | 0.178 | 0.679 | 0.886 | 0.491 | 0.667 | 0.741 |
| NCI-H1915 | 0.976 | 0.919 | 0.869 | 0.727 | 0.495 | 1.08 | 1.03 | 0.844 | 1.25 | 0.362 | 0.369 | – | 0.376 | 0.348 | 0.53 | 0.644 | – | 0.5 | 0.486 |
| NCI-H1975 | 0.957 | 1.02 | 0.896 | 0.927 | 0.627 | 0.444 | 0.4 | 0.291 | 0.306 | 0.419 | 0.406 | 0.429 | 0.493 | 0.515 | 0.555 | 0.531 | 0.58 | 0.74 | 0.733 |
| NCI-H1993 | 0.933 | 0.943 | 0.873 | 0.77 | 0.729 | 1.24 | 0.875 | 1.31 | 1.04 | 0.522 | 0.583 | 0.528 | 0.615 | 0.52 | 0.646 | 0.544 | 0.59 | 0.708 | 0.641 |
| NCI-H2009 | 0.848 | 0.722 | 0.524 | 0.703 | 0.292 | 1.1 | 1.06 | 0.963 | 0.845 | 0.466 | 0.498 | 0.459 | 0.419 | 0.416 | 0.203 | 0.233 | 0.209 | 0.181 | 0.17 |
| NCI-H2023 | 0.638 | 0.663 | 0.622 | 0.635 | 0.478 | 1.36 | 0.956 | 0.892 | 1.06 | 0.304 | 0.473 | 0.411 | 0.457 | 0.459 | 0.42 | 0.397 | 0.302 | 0.36 | 0.29 |
| NCI-H2085 | 0.84 | 0.928 | 0.912 | 0.911 | 0.69 | 0.987 | 0.996 | 1.07 | 1.16 | 0.707 | 0.681 | 0.671 | 0.726 | 0.844 | 0.474 | 0.509 | 0.402 | 0.433 | 0.475 |
| NCI-H2087 | 0.926 | 1.04 | 1.03 | 0.926 | 0.362 | 1.02 | 0.944 | 0.948 | 1.13 | 0.479 | 0.46 | – | 0.521 | 0.657 | 0.249 | 0.27 | 0.247 | 0.2 | 0.197 |
| NCI-H2126 | 1.04 | 0.98 | 1.06 | 1.07 | 1.03 | 1.16 | 1.2 | 0.892 | 1.19 | 0.542 | 0.505 | 0.552 | 0.561 | 0.541 | 0.345 | 0.381 | 0.341 | 0.343 | 0.304 |
| NCI-H2228 | 0.372 | 0.486 | 0.5 | 0.41 | 0.531 | 1.63 | 1.12 | 0.975 | 1.13 | 0.259 | 0.325 | 0.407 | 0.479 | 0.452 | 0.753 | 0.741 | 1.06 | 0.641 | 1.01 |
